Consider 15 compounds from ChEMBL document CHEMBL5614396, “Structure-Activity Relationship Studies in Benzothiadiazoles as Novel Vaccine Adjuvants” (J Med Chem, 2024).

SMILES strings stand for the structures. Activity calls are given as the source filed them. No cut-off for these calls is given here.

A short description of data set [1]: Toxicity in ovalbumin-immunized BALB/c mouse assessed as weight loss at 200 nmol, im co-administered with ovalbumin on day 0 and day 21. The format is organism-based. The following applies: in vivo, 528 h, time 22 day.
Data set [2] relates to Mus musculus. The data set is described as follows: Immunostimulatory activity in BALB/c mouse assessed as increase in serum CXCL-1 level at 200 nmol, im and measured after 24 hrs by ELISA. It is filed as functional, organism-based. (In general: In an ELISA, binding on a coated surface is turned into a signal by an enzyme label.)
For a further data set, the system named is THP-1. The data set is described as follows: Vaccine adjuvant activity in human THP-1 cells expressing CD63-Turbo-luciferase and CD9-Emerald green fluorescent protein reporter assessed as extracellular vesicle release by measuring reporter activation at 10 uM incubated for 48 hrs by TurboLuc luciferase based chemiluminescence assay (reference value: 0%). The format is functional.

Data set [3] in a line: Cytotoxicity against Balb/c mouse BMDC assessed as cell viability at 10 uM incubated for 20 hrs by MTT assay (reference value: 100 +/-0.6%). The format is toxicity, cell-based. The following applies: BMDC (bone marrow-derived dendritic cells), read-out: Activity.
The subject of data set [4] is Mus musculus. The data set is described as follows: Vaccine adjuvant activity against ovalbumin-immunized BALB/c mouse assessed as increase in anti-OVA specific IgG titer in serum at 200 nmol, im co-administered with ovalbumin on day 0 and day 21 and measured on day 28 by ELISA. The format is functional, organism-based. Particulars: time 29.0 day.
The subject of data set [5] is BMDC. The data set is described as follows: Vaccine adjuvant activity in Balb/c mouse BMDC assessed as increase in IL-12 production at 10 uM incubated for 20 hrs by ELISA (reference value: 1.35 +/-0.1 ng/ml). It is filed as functional.
Data set [6] deals with BMDC. The data set is described as follows: Vaccine adjuvant activity in Balb/c mouse BMDC assessed as induction of Ca2+ influx at 10 uM by Fura-2/8-AM dye based fluorescence analysis (reference value: 0%). The format is functional.
The nature of data set [7]: Toxicity in ovalbumin-immunized BALB/c mouse assessed as behavioural changes at 200 nmol, im co-administered with ovalbumin on day 0 and day 21. The following applies: in vivo, 528 h, time 22 day. The format is organism-based.
Data set [8] relates to Mus musculus. The data set is described as follows: Immunostimulatory activity in BALB/c mouse assessed as increase in serum CXCL-1 level at 200 nmol, im and measured after 2 to 6 hrs by ELISA. It is filed as functional, organism-based. The following applies: time 2-6 hrs.
For data set [9], the system named is Mus musculus. The data set is described as follows: Vaccine adjuvant activity against ovalbumin-immunized BALB/c mouse assessed as induction of antigen-specific Th2 immune responses by measuring increase in anti-OVA specific IgG1 titer in serum at 200 nmol, im co-administered with ovalbumin on day 0 and day 21 and measured on day 28 by ELISA. The format is functional, organism-based. The following applies: time 29.0 day.

Data set [10] relates to Mus musculus. The data set is described as follows: Immunostimulatory activity in BALB/c mouse assessed as increase in serum CXCL-1 level at 1 ug, im and measured after 24 hrs by ELISA. It is filed as functional, organism-based. The following applies: dose 1.0 µg.
The subject of data set [11] is Mus musculus. The data set is described as follows: Immunostimulatory activity in BALB/c mouse assessed as increase in serum CCL-4 level at 1 ug, im and measured after 2 hrs by multiplex Luminex beads assay. It is filed as functional, organism-based. Particulars: dose 1.0 µg.
The test system of data set [12] is Mus musculus. The data set is described as follows: Immunostimulatory activity in BALB/c mouse assessed as increase in serum IL-6 level at 1 ug, im and measured after 24 hrs by multiplex Luminex beads assay. The format is functional, organism-based. The following applies: dose 1.0 µg.
The test system of data set [13] is Mus musculus. The data set is described as follows: Immunostimulatory activity in BALB/c mouse assessed as increase in serum CCL-2 level at 1 ug, im and measured after 2 hrs by multiplex Luminex beads assay. It is filed as functional, organism-based. Particulars: dose 1.0 µg.
Data set [14] relates to Mus musculus. The data set is described as follows: Immunostimulatory activity in BALB/c mouse assessed as increase in serum IL-6 level at 1 ug, im and measured after 2 hrs by multiplex Luminex beads assay. The format is functional, organism-based. The following applies: dose 1.0 µg.
The test system of data set [15] is Mus musculus. The data set is described as follows: Immunostimulatory activity in BALB/c mouse assessed as increase in serum CXCL-1 level at 1 ug, im and measured after 2 hrs by ELISA. The format is functional, organism-based. The following applies: dose 1.0 µg.
The test system of data set [16] is Mus musculus. The data set is described as follows: Immunostimulatory activity in BALB/c mouse assessed as increase in serum CXCL-10 level at 1 ug, im and measured after 6 hrs by multiplex Luminex beads assay. The format is functional, organism-based. The following applies: dose 1.0 µg.
Data set [17] concerns Mus musculus. The data set is described as follows: Immunostimulatory activity in BALB/c mouse assessed as increase in serum CCL-2 level at 1 ug, im and measured after 24 hrs by multiplex Luminex beads assay. The format is functional, organism-based. The following applies: dose 1.0 µg.
The subject of data set [18] is Mus musculus. The data set is described as follows: Immunostimulatory activity in BALB/c mouse assessed as increase in serum CCL-4 level at 1 ug, im and measured after 24 hrs by multiplex Luminex beads assay. It is filed as functional, organism-based. Particulars: dose 1.0 µg.

As for `CCOC(=O)c1c(NS(=O)(=O)c2cccc3nsnc23)sc(-c2ccccc2)c1C`, the Activity entry was “Non-Toxic” in [1]; 338.9% with THP-1; 3.79 ng/mL with BMDC [5]; 115.7% with BMDC [6]; “Non-Toxic” in [7]. In the data set on Mus musculus [2], the outcome was inactive. In [3], the viability at 20 h, 10 µM amounted to 136%. For the same compound, the outcome in the data set on Mus musculus [4], in the data set on Mus musculus [8] and in the data set with Mus musculus [9] was Active.

Regarding `CCOC(=O)c1c(NS(=O)(=O)c2cccc3ccccc23)sc(C)c1C`, the Activity entry in data set [1] was “Non-Toxic”; in the data set with THP-1, 5.2%; in the data set on BMDC [5] it was 1.37 ng/mL; in the data set with BMDC [6], -14.1%; in [7], “Non-Toxic”. In addition, the viability at 20 h, 10 µM in data set [3] worked out at 111%.

For `CCCCCCCCCCCCCC(=O)O[C@H](CCCCCCCCCCC)CC(=O)N[C@H]1[C@H](OC[C@H]2O[C@H](O)[C@H](NC(=O)C[C@H](O)CCCCCCCCCCC)[C@@H](OC(=O)C[C@H](O)CCCCCCCCCCC)[C@@H]2O)O[C@H](CO)[C@@H](OP(=O)(O)O)[C@@H]1OC(=O)C[C@@H](CCCCCCCCCCC)OC(=O)CCCCCCCCCCCCC`, the result in the data set on Mus musculus [10], with Mus musculus [12], with Mus musculus [17] and in the data set with Mus musculus [18] was inactive. Moreover, the outcome with Mus musculus [11], in the data set on Mus musculus [13], with Mus musculus [14], in the data set with Mus musculus [15] and with Mus musculus [16] was Active.

For the compound `CCOC(=O)c1c(NS(=O)(=O)c2cccc3nsnc23)sc(C)c1C`, the Activity result was “Non-Toxic” in [1]; 100% in the data set on THP-1; 1.78 ng/mL in the data set on BMDC [5]; 100% in the data set with BMDC [6]; “Non-Toxic” in data set [7]. Also, the result with Mus musculus [2] was inactive. Moreover, the viability at 20 h, 10 µM in data set [3] amounted to 114%. Further, the outcome with Mus musculus [4] and in the data set with Mus musculus [8] was Active.

As for `Cc1sc(NS(=O)(=O)c2cccc3nsnc23)c(C(=O)OC2CCCCC2)c1C`, the Activity result in data set [1] was “Non-Toxic”; in the data set on THP-1, 213%; with BMDC [5], 3.08 ng/mL; in the data set with BMDC [6], 177.8%; in [7], “Non-Toxic”. In addition, the result with Mus musculus [2] was inactive. Moreover, the viability at 20 h, 10 µM in [3] worked out at 102%. Moreover, the result with Mus musculus [4], in the data set with Mus musculus [8] and in the data set with Mus musculus [9] was Active.

On to `CCOC(=O)c1c(NS(=O)(=O)c2cccc3n[se]nc23)sc(C)c1C`, for which the Activity entry in [1] was “Non-Toxic”; in the data set on THP-1 it was 210.4%; in the data set on BMDC [5] it was 3.11 ng/mL; with BMDC [6], 147.5%; in [7], “Non-Toxic”. Besides, the viability at 20 h, 10 µM in [3] came to 109%. The result in the data set with Mus musculus [4] and in the data set with Mus musculus [9] was Active.

Take `Cc1sc(NS(=O)(=O)c2cccc3nsnc23)c(-c2nc(C#N)no2)c1C`: the Activity entry in [1] is “Non-Toxic”; with THP-1, 1.5%; in the data set on BMDC [5] it was 1.59 ng/mL; with BMDC [6] it was -7%; in data set [7], “Non-Toxic”. In addition, the viability at 20 h, 10 µM in data set [3] was 97.6%. The outcome with Mus musculus [4] was inactive.

On to `CCOC(=O)c1c(NS(=O)(=O)c2ccccc2)sc(C)c1C`, for which the Activity in the data set with THP-1 is 0.7%; in the data set with BMDC [5], 1.16 ng/mL; in the data set on BMDC [6], -10.9%. In addition, in data set [3], the viability at 20 h, 10 µM came out at 102%. The result in the data set on Mus musculus [4] was inactive.

Regarding `CCOC(=O)c1c(NS(=O)(=O)c2cccc3nccnc23)sc(C)c1C`, the Activity result in data set [1] is “Non-Toxic”; in the data set with THP-1, 113.3%; in the data set on BMDC [5], 4.12 ng/mL; in the data set with BMDC [6], 122%; in data set [7], “Non-Toxic”. Also, the viability at 20 h, 10 µM in data set [3] stood at 181%. In addition, the result with Mus musculus [4] and in the data set on Mus musculus [9] was Active.

Turning to `CCOC(=O)c1c(NC(=O)c2cccc3nsnc23)sc(C)c1C`, in the data set on Mus musculus [2], the result was inactive. The Activity in the data set on THP-1 was -0.4%; in the data set on BMDC [5] it was 1.37 ng/mL; in the data set on BMDC [6], -5.4%. Further, the viability at 20 h, 10 µM in data set [3] is 59.1%. Besides, the result in the data set with Mus musculus [8] was Active.

Take `CCOC(=O)c1c(N(C)S(=O)(=O)c2cccc3nsnc23)sc(C)c1C`: the Activity with THP-1 was -2%; in the data set with BMDC [5], 1.19 ng/mL; with BMDC [6] it was -39.3%. The viability at 20 h, 10 µM in data set [3] was 108%.

Consider `CCOC(=O)c1c(NS(=O)(=O)c2cccc3nsnc23)sc2c1CCC2`, for which the results for the Activity in the data set with THP-1, in the data set with BMDC [5] and with BMDC [6] were 94.9%, 1.85 ng/mL and 121%, respectively. Also, the viability at 20 h, 10 µM in [3] worked out at 127%.

With `CCCCCCOC(=O)c1c(NS(=O)(=O)c2cccc3nsnc23)sc(C)c1C`, the Activity is 185.3% with THP-1, 3.44 ng/mL with BMDC [5] and 245% in the data set on BMDC [6]. For the same compound, the viability at 20 h, 10 µM in [3] worked out at 106%.

As for `CCOC(=O)c1c(NS(=O)(=O)c2cccc3nsnc23)sc(C)c1-c1ccccc1`, the Activity with THP-1 is 49.6%; in the data set with BMDC [5], 1.45 ng/mL; with BMDC [6], 69.1%. Further, the viability at 20 h, 10 µM in [3] is 94.2%.

As to `CCOC(=O)c1c(NS(=O)(=O)c2cccc3nsnc23)sc2ccccc12`, the Activity in the data set on THP-1 worked out at 98.3%; with BMDC [5] it was 1.11 ng/mL; in the data set with BMDC [6], 97%. Moreover, in [3], the viability at 20 h, 10 µM turned out to be 99.1%.
